Test results reported in US12331033B2, “Inhibitors of SARM1” (Disarm Therapeutics, Inc., priority 2020, dated 2025).

The compounds below were run against SARM1 (ARM-SAM-TIR) (Homo sapiens (Human), UniProt Q6SZW1) (assay: ARM-SAM-TIR SARM1 IC50 assay (NADase activity, NAD+ cleavage, RapidFire MS)). Settings: ARM-SAM-TIR lysate 5 μg/mL, 2 h pre-incubation, 5 μM NAD+, 2 hr room temperature.
Type: biochemical
Description: This Example describes an assay of ARM-SAM-TIR NADase activity and use of this assay to measure the efficacy of compounds of Formula I or Formula I′ to block SARM1 mediated NAD+ cleavage. This assay was optimized in such a way as to characterize the efficacy of the compounds in Formula I or Formula I′ to inhibit SARM1 activity and to calculate an IC50 value for each compound. This assay makes use of full length SARM1, which encompasses the ARM, SAM and TIR domains.
NRK1-HEK293T cells were seeded onto 150 cm^2 plates at 20×10^6 cells per plate. The next day, the cells were transfected with 15 μg ARM-SAM-TIR expression plasmid, SEQ ID NO: 1.
The cultures were supplemented with 1 mM NR at time of transfection to minimize toxicity from ARM-SAM-TIR overexpression. Forty-eight hours after transfection, cells were harvested, pelleted by centrifugation at 1,000 rpm (Sorvall ST 16R centrifuge, Thermo Fisher), and washed once with cold PBS (0.01 M phosphate buffered saline NaCl 0.138 M; KCl 0.0027 M; pH 7.4). The cells were resuspended in PBS with protease inhibitors (cOmplete™ protease inhibitor cocktail, Roche product #11873580001) and cell lysates were prepared by sonication (Branson Sonifer 450, output=3, 20 episodes of stroke). The lysates were centrifuged (12,000×g for 10 min at 4° C.) to remove cell debris and the supernatants (containing ARM-SAM-TIR protein) were stored at −80° C. for later use in the in vitro ARM-SAM-TIR NADase assay (see below). Protein concentration was determined by the Bicinchoninic (BCA) method and used to normalize lysate concentrations.
The enzymatic assay was performed in a 384-well polypropylene plate in Dulbecco's PBS buffer in a final assay volume of 20 μL. ARM-SAM-TIR lysate with a final concentration of 5 μg/mL was pre-incubated with the respective compound at 1% DMSO final assay concentration over 2 h at room temperature. The reaction was initiated by addition of 5 μM final assay concentration of NAD+ as substrate. After a 2 hr room temperature incubation, the reaction was terminated with 40 μL of stop solution of 7.5% trichloroactetic acid in acetonitrile. The NAD+ and ADPR concentrations were analyzed by a RapidFire High Throughput Mass Spectrometry System (Agilent Technologies, Santa Clara, Calif.) using an API4000 triple quadrupole mass spectrometer (AB Sciex Framingham, Mass.).

SARM1 (ARM-SAM-TIR), sequence (Q6SZW1 other isoform, or with tags, fused parts or gaps): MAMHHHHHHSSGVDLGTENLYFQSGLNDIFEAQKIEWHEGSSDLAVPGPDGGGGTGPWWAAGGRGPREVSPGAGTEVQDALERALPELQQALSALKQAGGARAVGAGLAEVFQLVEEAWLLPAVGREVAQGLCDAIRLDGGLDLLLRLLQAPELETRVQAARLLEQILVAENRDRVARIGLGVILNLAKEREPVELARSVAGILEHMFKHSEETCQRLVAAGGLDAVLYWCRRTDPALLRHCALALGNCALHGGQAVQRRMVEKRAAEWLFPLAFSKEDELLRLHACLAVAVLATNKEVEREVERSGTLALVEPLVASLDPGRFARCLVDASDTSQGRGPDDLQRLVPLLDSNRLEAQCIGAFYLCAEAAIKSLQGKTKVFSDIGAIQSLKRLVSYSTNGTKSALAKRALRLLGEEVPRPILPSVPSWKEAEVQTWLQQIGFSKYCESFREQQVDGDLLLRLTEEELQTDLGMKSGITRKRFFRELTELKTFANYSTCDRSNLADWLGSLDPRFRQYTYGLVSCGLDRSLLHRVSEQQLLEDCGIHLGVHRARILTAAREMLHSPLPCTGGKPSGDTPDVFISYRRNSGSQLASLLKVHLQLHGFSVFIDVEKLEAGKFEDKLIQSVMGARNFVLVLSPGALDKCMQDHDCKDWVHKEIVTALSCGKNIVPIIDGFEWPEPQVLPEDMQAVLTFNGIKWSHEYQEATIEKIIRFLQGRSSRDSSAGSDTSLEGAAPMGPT

Row | SMILES | IC50 [µM]
1 | O=C(Nc1nnc(-c2ccncc2)[nH]1)NC1CCOc2nc(Cl)ccc21 (centres unmarked) [Example 184] | 5 to 15
2 | COc1ccc(CCC(=O)Nc2nnc(-c3ccncc3)[nH]2)cc1 [Example 127] | < 5
3 | O=C(CCc1ccc(Br)cc1)Nc1nnc(-c2ccncc2)[nH]1 [Example 105] | < 5
4 | Cc1c(-c2ccncc2)n[nH]c1NC(=O)CC1CCOc2cc(Cl)ccc21 (centres unmarked) [Example 173] | < 5
5 | O=C(CNc1ccccc1)Nc1nnc(-c2ccncc2)[nH]1 [Example 69] | 5 to 15
6 | Cc1c(-c2ccncc2)n[nH]c1NC(=O)CC1Cc2ccccc2C1 [Example 199] | 5 to 15
7 | CC(C)(C)OC(=O)N(CC(=O)Nc1nnc(-c2ccncc2)[nH]1)c1ccccc1 [Example 70] | > 30
8 | O=C(CCc1cn2ccccc2n1)Nc1nnc(-c2ccncc2)[nH]1 [Example 123] | 15 to 30
9 | Cc1c(-c2ccncc2)n[nH]c1NC(=O)C[C@H]1CCOc2cc(Cl)ccc21 [Example 214] | < 5
10 | Cc1cccc(CCC(=O)Nc2nnc(-c3ccncc3)[nH]2)c1 [Example 140] | < 5
11 | O=C(CCc1cccc(F)c1)Nc1cc(-c2ccncc2)n[nH]1 [Example 14] | < 5
12 | C[C@H](CC(=O)Nc1nnc(-c2ccncc2)[nH]1)c1ccccc1 [Example 94] | 15 to 30
13 | Cc1c(-c2ccncc2)n[nH]c1NC(=O)CCc1nc(C2CC2)no1 [Example 251] | 5 to 15
14 | O=C(CNc1ccc(Cl)cc1)Nc1cc(-c2ccncc2)n[nH]1 [Example 4] | < 5
15 | O=C(Nc1nnc(-c2ccnnc2)[nH]1)[C@H]1C[C@H](c2ccc(Cl)cc2)C1 [Example 196] | < 5
16 | Cc1c(-c2ccncc2)n[nH]c1NC(=O)[C@H](O)Cc1ccc(Cl)cc1 [Example 289] | < 5
17 | CNC(=O)Cc1c(-c2ccncc2)n[nH]c1NC(=O)CCc1ccc(Cl)cc1 [Example 263] | < 5
18 | CC(Cc1ccccc1)C(=O)Nc1nnc(-c2ccncc2)[nH]1 (centres unmarked) [Example 95] | 5 to 15
19 | Cc1c(-c2ccncc2)n[nH]c1NC(=O)CCc1ccc(F)c(F)c1 [Example 268] | < 5
20 | CC(C)(C)c1ccc(CCC(=O)Nc2nnc(-c3ccncc3)[nH]2)cc1 [Example 78] | 5 to 15
21 | Cc1c(-c2ccncc2)n[nH]c1NC(=O)CCNC(=O)C1CC1C (centres unmarked) [Example 243] | 5 to 15
22 | O=C(C[C@H]1CCc2ccccc21)Nc1nnc(-c2ccncc2)[nH]1 [Example 68] | 5 to 15
23 | Cc1c(-c2ccncc2)n[nH]c1NC(=O)CCc1ccc(Cl)cc1 [Example 18] | < 5
24 | Cc1c(-c2ccncc2F)n[nH]c1NC(=O)CCc1ccc(Cl)nc1 [Example 314] | < 5
25 | CC1(c2c(-c3ccnnc3)n[nH]c2NC(=O)CCc2ccc(Cl)nc2)CC1 [Example 321] | < 5

Row | SMILES | IC50 [µM]
26 | O=C(Nc1cc(-c2ccnnc2)n[nH]1)[C@H]1C[C@H](c2ccc(Cl)cc2)C1 [Example 197] | < 5
27 | CCOC(=O)c1c(-c2ccncc2)n[nH]c1NC(=O)CCc1ccc(Cl)cc1 [Example 187] | < 5
28 | O=C(CC1OCCc2ccccc21)Nc1nnc(-c2ccncc2)[nH]1 (centres unmarked) [Example 58] | 5 to 15
29 | O=C(CCc1ccc(Cl)nc1)Nc1[nH]nc(-c2ccncc2)c1F [Example 266] | < 5
30 | O=C(CCc1c(F)c(F)c(F)c(F)c1F)Nc1nnc(-c2ccncc2)[nH]1 [Example 118] | < 5
31 | O=C(CCc1ccc(Cl)cc1)Nc1cc(-c2ccncc2C2CC2)n[nH]1 [Example 298] | < 5
32 | N#Cc1c(-c2ccncc2F)n[nH]c1NC(=O)CCc1ccc(Cl)cc1 [Example 325] | < 5
33 | O=C(CC1CCOc2cc(Cl)ccc21)Nc1nnc(-c2ccnnc2)[nH]1 (centres unmarked) [Example 193] | < 5
34 | O=C(CCc1ccc(Cl)cc1)Nc1cc(-c2ccnnc2)[nH]n1 [Example 40] | < 5
35 | CC1(c2c(-c3ccncc3)n[nH]c2NC(=O)CCc2ccc(Cl)cc2)CC1 [Example 303] | < 5
36 | CC(C)(Cc1ccccc1)C(=O)Nc1nnc(-c2ccncc2)[nH]1 [Example 96] | 5 to 15
37 | N[C@@H](Cc1ccc(Cl)cc1)C(=O)Nc1nnc(-c2ccncc2)[nH]1 [Example 56] | < 5
38 | O=C(C[C@@H]1CCCc2ccccc21)Nc1nnc(-c2ccncc2)[nH]1 [Example 91] | < 5
39 | O=C(CCc1ccc(Cl)cc1)Nc1cc(-c2ccncc2F)n[nH]1 [Example 25] | < 5
40 | O=C(NCc1ccc(Cl)cc1)Nc1cc(-c2ccncc2)n[nH]1 [Example 7] | < 5
41 | [2H]C([2H])(C(=O)Nc1[nH]nc(-c2ccnnc2)c1C)C([2H])([2H])c1ccc(Cl)cc1 [Example 177] | < 5
42 | N#Cc1c(-c2ccncc2)n[nH]c1NC(=O)CCc1ccc(Cl)cc1 [Example 186] | < 5
43 | O=C(CCc1ccc(Cl)cc1)Nc1nnc(-c2c(F)cncc2F)[nH]1 [Example 315] | 5 to 15
44 | Nc1cnccc1-c1cc(NC(=O)CCc2ccc(Cl)nc2)[nH]n1 [Example 294] | < 5
45 | Cc1c(-c2ccnnc2)n[nH]c1NC(=O)C[C@H]1CCOc2cc(Cl)ccc21 [Example 278] | < 5
46 | O=C(CCc1cccc(F)c1)Nc1nnc(-c2ccncc2)[nH]1 [Example 15] | < 5
47 | Cc1c(-c2ccncc2)n[nH]c1NC(=O)C(O)Cc1ccc(Cl)cc1 (centres unmarked) [Example 223] | < 5
48 | O=C(Nc1nnc(-c2ccncc2)[nH]1)[C@@H]1C[C@H]1c1ccccc1 [Example 104] | 5 to 15
49 | CCc1ccc(CCC(=O)Nc2nc(-c3ccncc3)n[nH]2)cc1 [Example 44] | < 5
50 | O=C(CCc1ccc(Cl)cn1)Nc1nnc(-c2ccncc2)[nH]1 [Example 106] | < 5

Row | SMILES | IC50 [µM]
51 | O=C(Nc1nnc(-c2ccncc2)[nH]1)[C@@H]1C[C@@H]1c1ccccc1 [Example 103] | 15 to 30
52 | Cc1c(-c2ccncc2)n[nH]c1NC(=O)CCc1ccc(C(F)(F)F)cc1 [Example 200] | < 5
53 | Cc1c(-c2ccncc2)n[nH]c1NC(=O)[C@H]1C[C@H](c2ccc(Cl)cc2)C1 [Example 182] | < 5
54 | [2H]C([2H])([2H])c1c(-c2ccncc2)n[nH]c1NC(=O)C([2H])([2H])C([2H])([2H])c1ccc(Cl)nc1 [Example 150] | < 5
55 | O=C(CCc1ccc(Cl)cc1)Nc1[nH]nc(-c2ccncc2)c1F [Example 168] | < 5
56 | O=C(CCc1ccc(OC(F)(F)F)cc1)Nc1nnc(-c2ccncc2)[nH]1 [Example 120] | < 5
57 | Cc1c(-c2ccncc2)n[nH]c1NC(=O)CCc1cc(F)cc(F)c1 [Example 222] | < 5
58 | O=C(CCc1ccc(Cl)cc1)Nc1cc(-c2ccncc2)[nH]n1 [Example 114] | < 5
59 | O=C(CCc1ccc(Cl)s1)Nc1nc(-c2ccncc2)c[nH]1 [Example 159] | < 5
60 | O=C(CC1CCOc2cc(Cl)ncc21)Nc1nnc(-c2ccncc2)[nH]1 (centres unmarked) [Example 180] | < 5
61 | O=C(CCc1ccc(Cl)cc1Cl)Nc1nnc(-c2ccncc2)[nH]1 [Example 36] | < 5
62 | N#Cc1c(-c2ccncc2)n[nH]c1NC(=O)CCc1ccc(Cl)nc1 [Example 195] | < 5
63 | O=C(CC1CCNc2ccccc21)Nc1nnc(-c2ccncc2)[nH]1 (centres unmarked) [Example 63] | > 30
64 | Cc1c(-c2ccncc2)n[nH]c1NC(CCc1ccc(Cl)cc1)C(F)(F)F (centres unmarked) [Example 317] | 5 to 15
65 | [2H]C([2H])(C(=O)Nc1nnc(-c2ccnnc2)[nH]1)C([2H])([2H])c1ccc(Cl)nc1 [Example 191] | < 5
66 | Cc1ccc(CCC(=O)Nc2nnc(-c3ccncc3)[nH]2)cn1 [Example 83] | 5 to 15
67 | N[C@@H](Cc1ccc(Cl)cc1)C(=O)Nc1cc(-c2ccncc2)n[nH]1 [Example 3] | < 5
68 | CC(C)(C)OC(=O)N1CCC(CC(=O)Nc2nnc(-c3ccncc3)[nH]2)c2ccccc21 (centres unmarked) [Example 64] | > 30
69 | O=C(CCc1ccc(C(F)(F)F)nc1)Nc1nnc(-c2ccncc2)[nH]1 [Example 86] | < 5
70 | Cc1ccc(OCC(=O)Nc2nnc(-c3ccncc3)[nH]2)c(C)c1 [Example 149] | 15 to 30
71 | Cc1c(-c2ccncc2)n[nH]c1NC(=O)CCc1ccc(C#N)c(F)c1 [Example 274] | < 5
72 | O=C(Nc1nnc(-c2ccncc2)[nH]1)[C@@H]1CCc2ccccc2C1 [Example 89] | 5 to 15
73 | O=C(CCc1ccc(Cl)cc1)Nc1nnc(-c2ccncc2)s1 [Example 115] | > 30
74 | COc1cnccc1-c1nnc(NC(=O)CCc2ccc(Cl)cc2)[nH]1 [Example 32] | < 5
